The data set is described as follows: Solubility of the compound in water as a function of pH. In kind it is physicochemical. From the text:
Therefore, pantoprazole which serves to raise the pH of the stomach was given to the test subjects in one branch of treatment in the clinical trials.

Data on one compound can be found in patent US20050107438A1, “Pharmaceutical composition comprising 3-[(2-{[4-(Hexyloxycarbonylaminoiminomethyl) phenylamino]-methyl}-1-methyl-1H-benzimidazol-5-carbonyl)-pyridin-2-yl-amino]-propionic acid ethyl ester or a salt therefore” (Boehringer Ingelheim International GmbH, priority 2003, published 2005).

Molecules are shown by their SMILES.

With `CCCCCCOC(=O)NC(=N)c1ccc(NCc2nc3cc(C(=O)N(CCC(=O)OCC)c4ccccn4)ccc3n2C)cc1` [compound of formula (I), ethyl 3-[(2-{[4-(hexyloxycarbonylaminoiminomethyl)phenylamino]methyl}-1-methyl-1H-benzimidazole-5-carbonyl)pyridin-2-ylamino]propionate], the solubility in water entry reads like this: (low pH values) “dissolves relatively easily”; (pH levels above 5, definition of the European Pharmacopoeia) “virtually insoluble”.
